# Results reported in PMC7557582, “Broad-Spectrum Antimicrobial Activity and Improved Stability of a D-Amino Acid Enantiomer of DMPC-10A, the Designed Derivative of Dermaseptin Truncates” (Antibiotics, 2020).
# Non-standard residues stand in square brackets, D forms with d. Residues, ends and D or L forms follow the SMILES beside them. Cha = N[C@@H](CC1CCCCC1)C(=O)O
# Columns and labels:
# S. aureus (NCTC 10788) [1] = assay type: cell-based, Staphylococcus aureus; conditions: for MIC of antibiotic: S. aureus (NCTC 10788), broth-dilution, MHB pH 7.4, 37 °C, positive control
# Method: (§6) Gram-positive bacteria Staphylococcus aureus (NCTC 10788) and Enterococcus faecalis (NCTC 12697) and Gram-negative bacteria Escherichia coli (NCTC 10418), Pseudomonas aeruginosa (ATCC 27853), and Klebsiella pneumoniae (ATCC 43816) were tested. […] All the bacterial strains were inoculated in Mueller Hinton broth (MHB), pH 7.4 (Oxiod, Basingstoke, UK) at 37 °C. Then, the log-phase bacteria were mixed with the peptide at the concentrations from 512 to 1 µM in two-fold dilution, in a 96 well-plate. The wells contained sterilized MHB and bacteria cultures were employed as a blank and growth control, respectively.
# MRSA (NCTC 12493) = assay type: cell-based, methicillin-resistant S. aureus; conditions: for MIC of antibiotic: MRSA (NCTC 12493), broth-dilution, MHB pH 7.4, 37 °C, positive control
# Method: as §6
# E. faecalis (NCTC 12697) = assay type: cell-based, Enterococcus faecalis; conditions: for MIC of antibiotic: E. faecalis (NCTC 12697), broth-dilution, MHB pH 7.4, 37 °C, positive control
# Method: as §6
# E. coli (NCTC 10418) [2] = assay type: cell-based, Escherichia coli; conditions: for MIC of antibiotic: E. coli (NCTC 10418), broth-dilution, MHB pH 7.4, 37 °C, positive control
# Method: as §6
# [3] = tested on: K. pneumoniae (ATCC 43816); assay type: cell-based, Klebsiella pneumoniae; conditions: for MIC of antibiotic: K. pneumoniae (ATCC 43816), broth-dilution, MHB pH 7.4, 37 °C, positive control
# Method: as §6
# [4] = tested on: K. pneumoniae (ATCC BAA 1705); assay type: cell-based, Klebsiella pneumoniae; conditions: for MIC of antibiotic: K. pneumoniae (ATCC BAA 1705), broth-dilution, MHB pH 7.4, 37 °C, positive control
# Method: as §6
# [5] = tested on: K. pneumoniae (ATCC BAA 2342); assay type: cell-based, Klebsiella pneumoniae; conditions: for MIC of antibiotic: K. pneumoniae (ATCC BAA 2342), broth-dilution, MHB pH 7.4, 37 °C, positive control
# Method: as §6
# [6] = tested on: P. aeruginosa (ATCC 27853); assay type: cell-based, Pseudomonas aeruginosa; conditions: for MIC of antibiotic: P. aeruginosa (ATCC 27853), broth-dilution, MHB pH 7.4, 37 °C, positive control
# Method: as §6
# S. aureus (NCTC 10788) [7] = assay type: cell-based, Staphylococcus aureus
# Method: (§1) Furthermore, the antimicrobial activity in the presence of MgCl2, CaCl2, NaCl and 10% fetal bovine serum (FBS) was investigated. In detail, 2 and 5 mM of MgCl2 and CaCl2, and 150 and 375 mM NaCl, were applied, respectively. The supplements were added into the medium that was used for diluting the bacteria suspension. Then, the diluted bacteria culture was mixed with the peptide stock solution in the 96-well plate, as mentioned above. The assay was performed three times and each assay contained 5 replicates.
# E. coli (NCTC 10418) [8] = assay type: cell-based, Escherichia coli
# Method: as §1
# trypsin = molecular target: T1, trypsin (Bos taurus, UniProt P00760); test: Enzyme stability assay, trypsin; assay type: in vitro ADME; conditions: peptide in PBS, peptide:trypsin 100:1 (m/m), time points 0-120 min, stopped with 10% TFA, RP-HPLC peak area, three replicates
# T1 construct: gene PRSS1
# T1 sequence (P00760 24-246): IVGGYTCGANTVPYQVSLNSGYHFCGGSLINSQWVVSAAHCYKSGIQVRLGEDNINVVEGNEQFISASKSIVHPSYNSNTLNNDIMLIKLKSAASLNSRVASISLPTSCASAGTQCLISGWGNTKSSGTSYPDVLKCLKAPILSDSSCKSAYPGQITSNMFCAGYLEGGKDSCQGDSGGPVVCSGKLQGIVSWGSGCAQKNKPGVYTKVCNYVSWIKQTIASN
# Method: (§2) The peptides were dissolved in phosphate-buffered saline (PBS) and mixed with the respective enzyme (trypsin and chymotrypsin) with a ratio of 100:1 (m/m). Then, 135 µl of the reaction solution was transferred into a new vial. The hydrolysis reaction was immediately terminated by adding 15 µl of 10% TFA at the different time points (0, 5, 10, 20, 40, 60, 120 min). The mixture was then analyzed by reverse-phase HPLC and respective peak areas were calculated to obtain the residual amount of peptides at different times.
# chymotrypsin = chymotrypsin (Bos taurus, UniProt P00766); test: Enzyme stability assay, chymotrypsin; assay type: in vitro ADME; conditions: peptide in PBS, peptide:chymotrypsin 100:1 (m/m)
# Method: as §2
# [9] = tested on: S. aureus (NCTC 10788) biofilm; test: Inhibition of biofilm formation (crystal violet); assay type: cell-based, Staphylococcus aureus; conditions: 37 °C 24–48 h, crystal violet 595 nm
# Method: (§3) The antibiofilm activity of synthetic peptides was evaluated via the inhibitory effect against the formation of biofilm and the eradication of mature biofilm, which were performed as the previously study with minor modifications. […] Then, the solution in each well was discarded. The biofilm was washed with PBS. Finally, the biofilm in each well was stained by 100 μL of 0.1% crystal violet solution and further dissolved by 30% acetic acid. The absorbance of dissolved crystal violet in each well was recorded at 595 nm. For the eradication of mature biofilm, biofilm was formed with incubation at 37 °C for 24–48 h. Then, the plate was washed with PBS and filled with the peptides which were prepared in the fresh medium. After treatment for 24 h at 37 °C, the plate was stained as mentioned above. Both assays were repeated three times, with 5 replicates each time.
# [10] = tested on: MRSA (NCTC 12493) biofilm; test: Inhibition of biofilm formation (crystal violet); assay type: cell-based, methicillin-resistant S. aureus; conditions: 37 °C 24–48 h, crystal violet 595 nm
# Method: as §3
# [11] = tested on: K. pneumoniae (ATCC 43816) biofilm; test: Inhibition of biofilm formation (crystal violet); assay type: cell-based, Klebsiella pneumoniae; conditions: 37 °C 24–48 h, crystal violet 595 nm
# Method: as §3
# [12] = tested on: S. aureus (NCTC 10788) biofilm; test: Eradication of mature biofilm (crystal violet); assay type: cell-based, Staphylococcus aureus; conditions: high concentrations ranging from 32 to 128 µM, 24 h treatment at 37 °C
# Method: as §3
# [13] = tested on: MRSA (NCTC 12493) biofilm; test: Eradication of mature biofilm (crystal violet); assay type: cell-based, methicillin-resistant S. aureus; conditions: high concentrations ranging from 32 to 128 µM, 24 h treatment at 37 °C
# Method: as §3
# [14] = tested on: K. pneumoniae (ATCC 43816) biofilm; test: Eradication of mature biofilm (crystal violet); assay type: cell-based, Klebsiella pneumoniae; conditions: at 64 µM and 128 µM, compared with S. aureus and MRSA
# Method: as §3
# [15] = tested on: K. pneumoniae (ATCC BAA 1705); test: Checkerboard synergy assay; assay type: cell-based, Klebsiella pneumoniae
# Method: (§4) The bacteria culture was prepared and diluted as performed in Section 4.4. Then, the bacteria dilution was mixed with a different combination of DMPC-10B and the antibiotics in the 96-well plate. The wells only contained individual peptides or antibiotics were applied as reference controls. Similarly, the turbidity of each well in the plate was measured at OD 550 nm, after incubation at 37 °C for 24 h. The fractional inhibitory concentration index (FICI) of each combination was defined as follows: FICI=MIC of DMPC-10B in combination/MIC of DMPC-10B alone+MIC of antibiotic in combination/MIC of antibiotic alone
# (§5) The profile of the combination was interpreted as synergistic, additive, and antagonistic for FICI ≤ 0.5, 0.5 < FICI ≤ 4.0, and FICI > 4.0, respectively.
# [16] = tested on: K. pneumoniae (ATCC BAA 2342); test: Checkerboard synergy assay; assay type: cell-based, Klebsiella pneumoniae
# Method: as §4, §5
# [17] = tested on: Galleria mellonella larvae infected with K. pneumoniae (ATCC 43816); test: Galleria mellonella larva infection model; assay type: in vivo; conditions: 20 mg/kg injected 1 h after infection, 5 days, 10 larvae per group
# Method: The assessment of in vivo antimicrobial activity of DMPC-10B was performed using the larva of Galleria mellonella, as in the previous study, with minor modifications. The infection model was constructed by injecting 10 μL of MRSA (NCTC 12493) and K. pneumoniae (ATCC 43816) bacteria suspension (5 × 10^7 CFU/mL) which was prepared in PBS. After 1 h, each infected larva was further administered an injection of 10 μL of peptide solution at different doses of 5, 10, 20 mg/kg. The infected larva that was administered 10 μL of PBS was employed as a negative control, while 20 mg/kg of gentamicin was used as a positive control. Each group contained 10 larvae and all larvae were inspected every 24 h for 5 days (the first day was 12 h).
# [18] = tested on: healthy Galleria mellonella larvae; test: Toxicity to larvae without infection; assay type: in vivo; conditions: highest dose (20 mg/kg), 5 days
smiles,measurement,setting,value
CC(C)C[C@@H](NC(=O)[C@H](C)N)C(=O)N[C@@H](Cc1c[nH]c2ccccc12)C(=O)N[C@H](CCCCN)C(=O)N[C@H](CCCCN)C(=O)N[C@H](CC(C)C)C(=O)N[C@H](CC(C)C)C(=O)N[C@H](CCCCN)C(=O)N[C@H](CCCCN)C(=O)N[C@@H](CC1CCCCC1)C(N)=O [DMPC-10B] (H-A[dL]W[dK][dK][dL][dL][dK][dK][Cha]-NH2; N-terminus assumed),MBC,"S. aureus (NCTC 10788) [1]; NCTC 10788, pH 7.4",16 µM
same,MIC,"S. aureus (NCTC 10788) [1]; NCTC 10788, pH 7.4",4 µM
same,MBC,"MRSA (NCTC 12493); NCTC 12493, pH 7.4",8 µM
same,MIC,"MRSA (NCTC 12493); NCTC 12493, pH 7.4",4 µM
same,MBC,"E. faecalis (NCTC 12697); NCTC 12697, pH 7.4",64 µM
same,MIC,"E. faecalis (NCTC 12697); NCTC 12697, pH 7.4",64 µM
same,MBC,"E. coli (NCTC 10418) [2]; NCTC 10418, pH 7.4",4 µM
same,MIC,"E. coli (NCTC 10418) [2]; NCTC 10418, pH 7.4",2 µM
same,MBC,"[3]; ATCC 43816, pH 7.4",8 µM
same,MIC,"[3]; ATCC 43816, pH 7.4",8 µM
same,MBC,"[4]; ATCC BAA 1705, pH 7.4",32 µM
same,MIC,"[4]; ATCC BAA 1705, pH 7.4",32 µM
same,MBC,"[5]; ATCC BAA 2342, pH 7.4",16 µM
same,MIC,"[5]; ATCC BAA 2342, pH 7.4",16 µM
same,MBC,"[6]; ATCC 27853, pH 7.4",32 µM
same,MIC,"[6]; ATCC 27853, pH 7.4",4 µM
same,MIC with CaCl2 5 mM,S. aureus (NCTC 10788) [7],64 µM
same,MIC with FBS 10%,S. aureus (NCTC 10788) [7],8 µM
same,MIC with MgCl2 5 mM,S. aureus (NCTC 10788) [7],64 µM
same,MIC with NaCl 150 mM,S. aureus (NCTC 10788) [7],64 µM
same,MIC with NaCl 375 mM,S. aureus (NCTC 10788) [7],128 µM
same,"MIC, no additive",S. aureus (NCTC 10788) [7],4 µM
same,MIC with CaCl2 5 mM,E. coli (NCTC 10418) [8],32 µM
same,MIC with FBS 10%,E. coli (NCTC 10418) [8],4 µM
same,MIC with MgCl2 5 mM,E. coli (NCTC 10418) [8],32 µM
same,MIC with NaCl 150 mM,E. coli (NCTC 10418) [8],16 µM
same,MIC with NaCl 375 mM,E. coli (NCTC 10418) [8],32 µM
same,"MIC, no additive",E. coli (NCTC 10418) [8],2 µM
same,time within which trypsin could not degrade the peptide completely,trypsin,> 2 h
same,stability to hydrolysis by chymotrypsin,"chymotrypsin; 120 min, RP-HPLC peak area, three replicates",exhibited resistance to the hydrolysis
same,time within which L-Trp site was not cleaved by chymotrypsin,chymotrypsin; RP-HPLC,> 2 h
same,inhibition of biofilm formation,[9],effectively inhibited
same,inhibition of biofilm formation,[10],effectively inhibited
same,inhibition of biofilm formation,[11],less potent
same,biofilm eradication effect,[12],around 50%
same,biofilm eradication effect,[13],around 50%
same,biofilm eradication effect,[14],more potent effects
same,combined MIC of DMPC-10B with norfloxacin,[15]; first value,32/32
same,individual MIC of DMPC-10B (norfloxacin checkerboard),[15]; second value,32/32
same,combined MIC of DMPC-10B with norfloxacin,[16]; first value,16/16
same,individual MIC of DMPC-10B (norfloxacin checkerboard),[16]; second value,16/16
same,survival of infected larvae,[17],around 70%
same,death of healthy larvae,[18],did not induce any death
"CNC(C)C1CCC(N)C(OC2C(N)CC(N)C(OC3OCC(C)(O)C(NC)C3O)C2O)O1 (centres unmarked) [Gentamicin, reference compound]",MIC of antibiotic,S. aureus (NCTC 10788) [1],<0.0625/<0.13 µg/mL
same,MIC of antibiotic,MRSA (NCTC 12493),0.125/0.26 µg/mL
same,MIC of antibiotic,E. faecalis (NCTC 12697),4/8.38 µg/mL
same,MIC of antibiotic,E. coli (NCTC 10418) [2],1/2.09 µg/mL
same,MIC of antibiotic,[3],1/2.09 µg/mL
same,MIC of antibiotic,[4],2/4.19 µg/mL
same,MIC of antibiotic,[5],4/8.38 µg/mL
same,MIC of antibiotic,[6],0.25/0.52 µg/mL
"CCn1cc(C(=O)O)c(=O)c2cc(F)c(N3CCNCC3)cc21 [Norfloxacin, reference compound]",MIC of antibiotic,S. aureus (NCTC 10788) [1],2/6.26 µg/mL
same,MIC of antibiotic,MRSA (NCTC 12493),2/6.26 µg/mL
same,MIC of antibiotic,E. faecalis (NCTC 12697),4/12.53 µg/mL
same,MIC of antibiotic,E. coli (NCTC 10418) [2],1/3.13 µg/mL
same,MIC of antibiotic,[3],2/6.26 µg/mL
same,MIC of antibiotic,[4],>32/>100.21 µg/mL
same,MIC of antibiotic,[5],>32/>100.21 µg/mL
same,MIC of antibiotic,[6],2/6.26 µg/mL
"CN[C@H](CC(C)C)C(=O)N[C@H]1C(=O)N[C@@H](CC(N)=O)C(=O)N[C@H]2C(=O)N[C@H]3C(=O)N[C@H](C(=O)N[C@H](C(=O)O)c4cc(O)cc(O)c4-c4cc3ccc4O)[C@H](O)c3ccc(c(Cl)c3)Oc3cc2cc(c3O[C@@H]2O[C@H](CO)[C@@H](O)[C@H](O)[C@H]2O[C@H]2C[C@](C)(N)[C@H](O)[C@H](C)O2)Oc2ccc(cc2Cl)[C@H]1O [Vancomycin, reference compound]",MIC of antibiotic,S. aureus (NCTC 10788) [1],0.125/0.08 µg/mL
same,MIC of antibiotic,MRSA (NCTC 12493),0.125/0.08 µg/mL
same,MIC of antibiotic,E. faecalis (NCTC 12697),1/0.69 µg/mL
